Test results published in patent US20240294488A1, “ISOTOPOLOGES, SALTS, CRYSTALLINE FORMS, STEREOISOMERS, OF METHYLONE AND ETHYLONE AND METHODS OF USE THEREOF” (Terran Biosciences Inc., priority 2021, published 2024).
Counter-ions that a name gives are not always drawn.

Test system: Sprague-Dawley rats
Experiment: Rat elevated zero maze model of anxiety
Format: in vivo
Conditions: for time spent in the open arms / frequency of stretched attend postures (SAPs): 30 min pretest, 5-min test; for time spent in the open arms: vs vehicle; for anxiogenic effect: across doses tested (2.5-30 mg/kg ip); for anxiolytic effect: at a sufficient dose
Text: The rat zero-maze model is a refined alternative to the plus-maze, the most widely used animal model of anxiety, and consists of an elevated annular platform, divided equally into four quadrants. Two opposite quadrants are enclosed by Perspex walls on both the inner and the outer edges of the platform, while the remaining two opposite quadrants are open being enclosed only by a Perspex “lip”. Animals will show a preference for the closed areas, and avoidance of the open sections is assumed to stem from a rodent's natural aversion to open, exposed spaces. The primary index of anxiety, which reflect changes in open arm preference, is the percentage of time spent on the open areas. A reduction in the amount of activity on the open areas is considered to reflect an increase in anxiety. Other, ethologically-based behaviours are also assessed as indices of anxiety. One of the most important is stretched attend postures (SAP) from closed to open quadrants. […] Shepherd, J K; et al., (1994) Behavioural and pharmacological validation of the elevated “zero-maze” as an animal model of anxiety. Psychopharmacol., 116:56-64.
Male Sprague-Dawley 200-250 g (Envigo UK) rats were used. Animals were group-housed (5 per cage; cage size: 40×40×20 cm) in a temperature-controlled environment (22±2° C.), under a 12 h light-dark cycle (lights on: 08:00 hours) for one week prior to testing. Food and water were freely available. Number of animals per group=5. Animals were moved into the experimental room 16-24 hours before testing.
The elevated 0-maze comprises a black Perspex annular platform (105 cm diameter, 10 cm width) elevated to 65 cm above ground level, divided equally into four quadrants. Two opposite quadrants are enclosed by clear red Perspex walls (27 cm high) on both the inner and outer edges of the platform, while the remaining two opposite quadrants are surrounded only by a Perspex “lip” (1 cm high) which serves as a tactile guide to animals on these open areas.
Subjects were weighed and tail marked before being injected. After a specified pretreatment time, subjects were placed in a closed quadrant and a 5-min test period were recorded on videotape for subsequent analysis. The maze were cleaned with 5% methanol/water solution and dried thoroughly between test sessions. Behavioural measures comprise percentage time spent on the open areas (% TO) and frequency of stretched attend postures (SAP) from closed to open quadrants. Since the control groups were all treated identically with the same vehicle these were combined to increase power. The Chlordiazepoxide groups were also treated identically with the same dose so these were also combined to increase power. Animals are scored as being in the open area when all four paws were in an open quadrant and in the closed area only when all four paws have passed over the open-closed divide. All testing were carried out between 9.00 and 16.00 hours.
Drug Versus Vehicle Treatments For each study, a 1-way ANOVA was conducted across vehicle, CDP, and drug treatment groups. Each group was compared to the vehicle group and a p-value for treatment determined by Fishers Least Significant Difference (LSD) test. This analysis was performed in GraphPad Prism (Version 9).Formulations: […]
Intraperitoneal (IP): Racemic methylone HCl was formulated in Vehicle 1 (Saline) for injection to concentrations of 1, 3 and 6 mg/mL to provide doses of 5, 15 and 30 mg/kg when administered ip in 5 mL/kg dosing volumes.
Intraperitoneal (IP): S-methylone HCl was formulated in Vehicle 1 (Saline) for injection to concentrations of 0.5, 1, 1.5, 3 and 6 mg/mL to provide doses of 2.5, 5, 7.5, 15 and 30 mg/kg when administered ip in 5 mL/kg dosing volumes.
Intraperitoneal (IP): R-methylone HCl was formulated in Vehicle 1 (Saline) for injection to concentrations of 1, 3 and 6 mg/mL to provide doses of 5, 15 and 30 mg/kg when administered ip in 5 mL/kg dosing volumes. […]

[1] = 30 mg/kg ip vs chlordiazepoxide 6 mg/kg ip

Row | Compound | time spent in the open arms (5 mg/kg ip) | decrease in SAPs compared with chlordiazepoxide (15 mg/kg ip vs chlordiazepoxide 6 mg/kg ip) | frequency of stretched attend postures (SAPs) (15 mg/kg ip) | time spent in the open arms (15 mg/kg ip) | frequency of stretched attend postures (SAPs) (30 mg/kg ip) | time spent in the open arms (30 mg/kg ip) | anxiogenic effect | anxiolytic effect | decrease in SAPs compared with chlordiazepoxide [1] | time spent in the open arms compared with chlordiazepoxide [1] | frequency of SAPs, dose dependence (5, 15 and 30 mg/kg ip) | time spent in the open arms, dose dependence (5, 15 and 30 mg/kg ip) | frequency of stretched attend postures (SAPs) (2.5 mg/kg ip) | frequency of stretched attend postures (SAPs) (5 mg/kg ip) | frequency of stretched attend postures (SAPs) (7.5 mg/kg ip) | time spent in the open arms (7.5 mg/kg ip)
1 | CNC(C)C(=O)c1ccc2c(c1)OCO2 (racemic) [(rac)-Methylone Hydrochloride, 3,4-methylenedioxy-N-methylcathinone hydrochloride] | a decrease in time spent in the open arms vs placebo | not as effective as chlordiazepoxide | dose dependent decrease in SAPs | no difference from placebo | a decrease in SAPs | a significant decrease in time spent in the open arms | show anxiogenic effects at lower doses | effective anxiolytics |  |  |  |  |  |  |  | 
2 | CN[C@H](C)C(=O)c1ccc2c(c1)OCO2 [(R)-Methylone Hydrochloride, (R)-1-(Benzo[d][1,3]dioxol-5-yl)-2-(methylamino)propan-1-one Hydrochloride] |  |  |  |  | significantly decreasing SAPs |  | did not show any anxiogenic effect at any dose | effective anxiolytics | to the same level as chlordiazepoxide | as effective as chlordiazepoxide | dose dependent decrease in SAPs | dose dependent increase in time spent in the open arms |  |  |  | 
3 | CN[C@@H](C)C(=O)c1ccc2c(c1)OCO2 [(S)-Methylone Hydrochloride, (S)-1-(Benzo[d][1,3]dioxol-5-yl)-2-(methylamino)propan-1-one Hydrochloride] | the time spent in the open arms decreased as the dose increased |  | dose dependent decrease in SAPS | the time spent in the open arms decreased as the dose increased | dose dependent decrease in SAPS | the time in the open arms increased | show anxiogenic effects at lower doses | effective anxiolytics | even more effective than chlordiazepoxide | as effective as chlordiazepoxide |  |  | dose dependent increase in SAPs | dose dependent increase in SAPs | dose dependent decrease in SAPS | the time spent in the open arms decreased as the dose increased
